Patent US20110212116A1, “IMMUNOGENIC PEPTIDES AND USES THEREOF” (Cancer Research Technology Limited, priority 2008, published 2011)
“Also recorded” adds a separate entry of the source.

Key:
[1] = test system: healthy donor T cells; test: IFNγ ELISA of healthy donor T cells stimulated with peptide loaded autologous DCs; format: cell-based, human; details: for IFNγ responses following stimulation with autologous DCs loaded with wild type peptide: in one of three normal donors tested; for IFNγ production from normal donor T cells: modified peptides P11-P16, six normal donors
Procedure: PBMCs were prepared from healthy donor buffy coats as described above. Monocytes were obtained from newly sourced buffy coats, or cells thawed at 10^6/ml in warm X-VIVO medium, 1% human AB serum and plated in 90 mm TC dishes. Plates were incubated at 37° C. for at least 4 hours and non adherent cells removed by gently washing with media or HBSS or CD14^+ cells were positively selected as described. The remaining T cell enriched cells were cryopreserved for use as effectors in later assays. The CD14^+ fraction/adherent cells were cultured in IL-4 (1000 IU/ml) and GM-CSF (800 U/ml) for 5 days to induce differentiation to a dendritic cell (DC) phenotype. On day 3 fresh IL-4 and GM-CSF were added. On day 5 TNFα (10 ng/ml), IL-6 (1000 U/ml) and IL-1β (10 ng/ml) all from R&D systems UK and PGE2 (1 μg/ml) (from Sigma, UK) were added to plates. On day 6 DCs were harvested from plates and washed with HBSS to remove residual cytokines before use in immunological experiments. Analysis of DC phenotype was carried out by flow cytometry.
IL-2 and IFNγ levels were determined with Duo set ELISA Development System (R&D Systems), according to the manufacturer's instructions. Supernatants were collected at various time points (days 3, 7, 10 and 14) in order to detect peak cytokine levels.
(§1) After 24 hours in maturation cytokines, DCs were incubated with peptide (50 μg/ml) for 4 hours. PBMCs or CD3^+ cells from healthy donors or patients with solid tumours were seeded into a 12-well plate, in X-VIVO 15 at a density of 2×10^6/ml. Peptide pulsed, monocyte derived DCs were washed and prepared at 2×10^5/ml. PBMC cultures received peptide pulsed DCs at a stimulator:effector ratio of […], or in the case of unstimulated controls, medium only. IL-7 was added to cultures at a final concentration of 10 U/ml on day 3. Cultures were restimulated by addition of peptide pulsed DCs on, day 7, and in some cases day 14, together with IL-7 and IL-2 (both at 10 U/ml). 200 μl of culture supernatants were collected at various intervals throughout the culture period and replaced with fresh medium. In the case of AML patient cultures, T2 cells were pulsed with peptide and used as stimulators in the same way as autologous DCs described above. Culture supernatants were analysed for IFNγ content by ELISA. After the 2-3 week culture period, stimulated effector cells were washed and analysed by pentamer staining, intracellular cytokine staining or ELISPOT assays.

[2] = test system: HHD mice; test: Mouse IFNγ-ELISpot after pDOM-epitope DNA vaccination
Procedure: HHD mice at 6 to 10 weeks of age were injected intramuscularly (i.m.) into both quadriceps with a total of 50 μg DNA in saline solution on day 0. Unless stated otherwise mice were boosted with the same DNA vaccine delivered with in vivo electroporation on day 28 as previously described^5.
Vaccine-specific IFNγ secretion by lymphocytes from individual mice was assessed ex vivo (BD ELISpot Set, BD PharMingen, San Diego, Calif.) on day 14 or 36, as described previously with some modifications^11. Briefly, viable lymphocytes were selected from splenocyte preparations by density centrifugation. […] Data are expressed as the frequency of spot-forming cells (SFCs) per million lymphocytes. For analysis of peptide-specific T-cell sensitivity, splenic lymphocytes from immunized mice were incubated with a range of PASD1 peptide concentrations and the frequency of specific cells assessed by ELISpot analysis as described. The number of SFC/million cells at the peptide concentration inducing the greatest response was assigned a value of 100%. For each peptide concentration tested the % maximal response was then calculated by the formula: (experimental SFCs per million cells/maximal SFCs per million cells)×100% for each individual animal.

[3] = test system: patient CD8+ T cells; test: pMHC tetramer array with unstimulated patient CD8+ T cells; format: cell-based, human
Procedure: FIG. 11: pMHC arrays. pMHC molecules were folded into tetramers using either streptavidin alone or AlexaFluor 532 (Molecular Probes) conjugated to streptavidin. Tetramers were spotted onto hydrogel slides using a contact deposition-type printer (Genetix), at a concentration of 0.5 mg/ml in 2% glycerol. Printed arrays were immobilised for 48 hours and stored at 4° C. until use. (FIG. 11 i) CD8+ T cells were negatively isolated from normal donor buffy coats obtained from National Blood Service UK or patient samples from the Department of Haematology, Southampton General Hospital following informed consent using EasySep isolation kits. […] Excess culture medium was removed before slides were analysed on the ProScanArray (PerkinElmer). […] Negatively isolated CD8+ T cells were labelled with CD8-FITC (FL1-H) and pMHC-SAPE (FL2-H) and analysed by flow cytometry using the FACScalibur™. […]
FIG. 12: Analysis of patient samples. […] Positives were only scored where at least 3 of 9 spots had T cells stuck to them and this occurred in both sets of spots in independent locations on the array. […]
In short, pMHC molecules were folded into tetramers using streptavidin alone or streptavidin conjugated to AlexaFluor 532 (Molecular Probes). […] Excess culture medium was removed before slides were analysed on the ProScanArray (PerkinElmer). […]

[4] = test system: solid tumour patient CD8+ T cells; test: Pentamer staining, solid tumour patient CD3+ T cells stimulated with peptide loaded autologous DCs; format: cell-based, human; details: for Pentamer positive cells, frequency of CD8+ cells: absence of peptide stimulation; for Pentamer positive cells, frequency of the CD8+ population: after peptide stimulation (P15: three rounds)
Procedure: (§2) Assessment of peptide specific T cells was carried out by staining 10^6 effector cells with 10 μl of PE labeled, HLA-A*0201 pentamers (custom made by Proimmune) for 10 minutes, at room temperature, in the dark. Cells were then washed and co-stained with CD8-FITC for 20 minutes at room temperature. The lymphocyte gate was selected according to FSSCH/SSCH and 50,000 events acquired. Staining with control pentamers was carried out for each sample.
as §1
There have been no reports of PASD1 expression in primary head and neck, prostate or colon cancer primary cells to date, but the head and neck cancer cell line Hn5^19, the lung cancer line H1299^19 and the colon cancer cell line SW480^24 are PASD1 positive. This raises the possibility that some solid cancer patients may be able to raise a response to the PASD1 peptides. Cells used in these experiments were isolated from leukophoresis samples taken several months after the cessation of treatment. Negatively purified CD3^+ T cells were stimulated with autologous monocyte derived DCs as described previously. Pentamer analysis was carried out after each stimulation.

[5] = test system: healthy donor CD8+ T cells; test: Pentamer staining, healthy donor CD3+ cells stimulated with peptide pulsed DCs; format: cell-based, human; details: two of four normal donors, after four stimulations
Procedure: as §2
as §1, with “200 μl of culture supernatants were collected at various intervals throughout the culture period and replaced with fresh medium. In the case of AML patient cultures, T2 cells were pulsed with peptide and used as stimulators in the same way as autologous DCs described above.” left out, “assays. […]” for “assays.”

[6] = test system: healthy donor CD3+ cells; test: Intracellular IFNγ staining of peptide stimulated CD3+ cultures; format: cell-based, human; details: after three stimulations, CD4 or CD8 co-staining
Procedure: For detection of IFNγ, Brefeldin A was added to T cells 12 hours prior to intracellular staining, to a final concentration of […]. Effector cells were washed with PBS and stained with CD8-PE or CD4-PE antibody for 30 minutes at room temperature. Stained cells were then washed twice with HBSS, and resuspended in the residual volume. 100 μl of fixation solution (Caltag Laboratories, UK) was added to each tube and samples incubated for 15 minutes at room temperature. Cells were then washed with cold HBSS, 1% FBS 0.1% sodium azide and resuspended in the residual volume. 100 μl of permeabilisation medium (Caltag Laboratories) and 5 μl of IFNγ-FITC was added to each tube, and incubated for 20 mins at room temperature. Finally, cells were washed and resuspended in 300-500 μl HBSS ready for FACS analysis. All antibodies and isotype controls were purchased from (Becton Dickinson, Oxford, UK) except HLA-A2 (from Serotec).
After 24 hours in maturation cytokines, DCs were incubated with peptide (50 μg/ml) for 4 hours. PBMCs or CD3^+ cells from healthy donors or patients with solid tumours were seeded into a 12-well plate, in X-VIVO 15 at a density of 2×10^6/ml. […] Culture supernatants were analysed for IFNγ content by ELISA. After the 2-3 week culture period, stimulated effector cells were washed and analysed by pentamer staining, intracellular cytokine staining or ELISPOT assays.

[7] = test system: patient T cells; test: IFNγ secretion by patient T cells following in vitro peptide stimulation; format: cell-based, human; details: for Specific IFNγ secretion by ELISpot: colon cancer patient T cells stimulated with peptide
Procedure: FIG. 4. IFNγ secretion by patient T cells following in vitro stimulations. (A) IFNγ levels in peptide stimulated cultures from AML patients (same as shown in FIGS. 3 B and E) as measured by ELISpot assays. […] Graphs show IFNγ levels at day 10 (y-axis).
as §1
(§3) The T2 line was first examined for immune stimulatory molecules by FACS analysis. […] T2 cells were cultured in serum free conditions to reduce the non-human antigens present in the FCS. T2 cells were incubated with peptide for 4 hours, washed and irradiated and seeded in 96 well plates. Purified T cells (Miltenyi) from patients were added and IFNγ secretion or the expansion of CD8^+ epitope specific T cells measured using pentamers.

[8] = test system: AML patient CD8+ T cells; test: Pentamer staining, AML patient CD3+ T cells stimulated with peptide loaded T2 cells; format: cell-based, human; details: for P14 pentamer positive cells of the CD8+ cells: after P14 peptide stimulation; for Pentamer positive cells, frequency of the CD8+ cells: after two rounds of ex vivo stimulation
Procedure: as §2, §1, §3
Prior to each restimulation, cells were resuspended and aliquots taken for pentamer staining.

[9] = test system: peptide loaded targets; format: cell-based
[10] = prostate cancer patient, up to four stimulations

Row | Substance | IFNγ responses following stimulation with autologous DCs loaded with wild type peptide [1] | Secretion of IFNγ in cultures of CD4+ depleted effector cells [1] | IFNγ production from normal donor T cells [1] | Pentamer positive cells, frequency of CD8+ cells ([4]; head and neck patient) | Pentamer positive cells, frequency of the CD8+ population ([4]; head and neck patient) | Pentamer positive cells [4, 10] | Pentamer positive T cells [5] | Specific IFNγ secretion by ELISpot [7] | Pentamer positive cells, frequency of the CD8+ cells ([8]; AML patients) | Killing of peptide loaded targets (CTL assay) [9] | other results
1 | P4: wild type PASD1 nonamer, SEQ ID NO. 1 (LQNPRDVSV; listed as Homo sapiens) | generated some IFNγ responses |  |  |  |  |  |  |  |  |  | 
2 | P8: wild type PASD1 peptide, SEQ ID NO. 9, PASD1 691-699 (RLWQELSDS; listed as Homo sapiens) | generated some IFNγ responses |  |  |  |  |  |  |  |  |  | IFNγ secretion (ELISpot) against the peptide of the immunisation ([2]; HHD mice, prime only, 14 days later): does not
3 | P9: wild type PASD1 nonamer, SEQ ID NO. 11 (KLQERKKWQ; listed as Homo sapiens) | generated some IFNγ responses |  |  |  |  |  |  |  |  |  | 
4 | P14: modified PASD1 peptide, SEQ ID NO 21, derivative of wild type peptide P8 (RLWQELSDI; Synthetic sequence amino acid sequence p14) |  | almost completely abolished | highest levels | 0.02% | not expanded | No pentamer positive cells were detected | small population | detectable | 0.02% |  | HLA-A2 positive ALL and CML patients with P14-specific T cells ([3]; 1 ALL and 1 CML HLA-A2 positive patient): neither; HLA-A2 positive AML patients with P14 specific T cells on the pMHC array ([3]; at presentation, no prior ex vivo stimulation): two of four; IFNγ secretion (ELISpot) against the peptide of the immunisation ([2]; mouse, in vivo): leads to an IFNγ response; P14 pentamer positive cells, frequency of the CD8+ T cell population ([4]; colon cancer patient, fourth stimulation): 13.6%; P14 pentamer positive cells, frequency of CD8+ cells ([4]; colon cancer patient, stimulation with DCs alone, corrected for control pentamer): 0.09%; P14 pentamer positive cells, frequency of CD8+ T cells ([4]; colon cancer patient, three rounds of P14 peptide stimulation): 0.11%; Phenotype of the IFNγ secreting cells [6]: IFNγ secreting cells were CD8+; IFNγ secretion by expanded P14-specific T cell populations ([7]; AML Patient I and II): IFNγ was secreted; Pentamer positive cells ([8]; AML Patient 3 (remission) and Patient 4 (non remission), after three stimulations): no pentamer positive cells were detected; P14 pentamer positive cells of the CD8+ cells ([8]; AML Patient I): 0.5%; P14 pentamer positive cells of the CD8+ cells ([8]; AML Patient II): 0.09%; Pentamer positive cells, frequency of the CD8+ T cells ([8]; AML patients, absence of peptide stimulation): not detectable above background levels; also recorded: undetectable
5 | P15: PASD1 peptide analogue with a single amino acid change, PASD1 587-595 (LINPRDVSV) |  | almost completely abolished | highest levels | same low frequency | 0.06% | No pentamer positive cells were detected | small population | not | 0.02% | did not occur | Pentamer positive cells ([4]; head and neck patient, fourth stimulation): did not expand this further
6 | P16: PASD1 peptide analogue with a single amino acid change, PASD1 587-595 (LVNPRDVSV) |  | almost completely abolished | highest levels |  |  |  |  |  |  | did not occur | 
